Earlier results on two compounds are cited in patent US20050148589A1, “Compositions of a cyclooxygenase-2 selective inhibitor and a neurotrophic factor-modulating agent for the treatment of central nervous system mediated disorders” (Pharmacia & Upjohn Company LLC, priority 2003, published 2005).

The test system of data set [1] is mRNA levels of various neurotrophic factors, including nerve growth factor (NGF), transforming growth factor (beta), and S100B in the central nervous system. The conditions noted are these: treatment with Neotrofin.
Data set [2] has as its system brain damage due to neuroexcitotoxins. Particulars: in vivo.
The test system of data set [3] is animal models of cognitive decline, aging, neuroprotection, and spinal cord injury. Particulars: pre-clinical studies.

In the case of `O=C(CCn1cnc2c(=O)[nH]cnc21)Nc1ccc(C(=O)[O-])cc1.[K+]` [Neotrofin], in data set [1], the “mRNA levels of neurotrophic factors (NGF, TGF beta, S100B) in the central nervous system” value is “elevated the mRNA levels of various neurotrophic factors”. As to `O=C(CCn1cnc2c(=O)[nH]cnc21)Nc1ccc(C(=O)[O-])cc1.[K+]` [Leteprinim potassium], the “prevention of brain damage due to neuroexcitotoxins” value in data set [2] was “shown to prevent brain damage due to neuroexcitotoxins”. Also, the “restoration of function in animal models” value in data set [3] was “restores function in animal models of cognitive decline, aging, neuroprotection, and spinal cord injury”.
